Test results reported in ChEMBL document CHEMBL5329160, “Design, synthesis, and mechanistic study of 2-piperazineone-bearing peptidomimetics as novel HIV capsid modulators” (RSC Med Chem, 2023).

Tested on: Human immunodeficiency virus 1
Test: Antiviral activity against HIV-1 IIIB infected in MT4 cells assessed as protection against virus induced cytotoxicity incubated for 5 days by MTT assay
Assay type: functional, organism-based
Details: Human immunodeficiency virus 1, IIIB, MT4, 120 h
For `COc1ccc(C(=O)N2CCN(CC(=O)N[C@@H](Cc3ccccc3)C(=O)N(C)c3ccc(OC)cc3)C(=O)C2)cc1`, the EC50 was 26 µM. `COc1ccc(N(C)C(=O)[C@H](Cc2cc(F)cc(F)c2)NC(=O)CN2CCN(C(=O)c3ccc(Br)cc3)CC2=O)cc1` showed an EC50 of over 19 µM. In the case of `COc1ccc(N(C)C(=O)[C@H](Cc2ccccc2)NC(=O)CN2CCN(C(=O)c3cccc([N+](=O)[O-])c3)CC2=O)cc1`, the EC50 is reported as over 24 µM. `COc1ccc(N(C)C(=O)[C@H](Cc2ccccc2)NC(=O)CN2CCN(C(=O)c3ccccc3F)CC2=O)cc1` showed an EC50 of 24 µM. In the case of `COc1ccc(N(C)C(=O)[C@H](Cc2cc(F)cc(F)c2)NC(=O)CN2CCN(C(=O)c3ccc(C(F)(F)F)cc3)CC2=O)cc1`, the EC50 is reported as over 18 µM. `COc1ccc(N(C)C(=O)[C@H](Cc2cc(F)cc(F)c2)NC(=O)CN2CCN(C(=O)c3cccc(C(F)(F)F)c3)CC2=O)cc1` showed an EC50 of over 3.7 µM. With `COc1ccc(C(=O)N2CCN(CC(=O)N[C@@H](Cc3cc(F)cc(F)c3)C(=O)N(C)c3ccc(OC)cc3)C(=O)C2)cc1` the EC50 was 24 µM. `COc1ccc(N(C)C(=O)[C@H](Cc2cc(F)cc(F)c2)NC(=O)CN2CCN(C(=O)c3cccc(N)c3)CC2=O)cc1` showed an EC50 of 23 µM. For `COc1ccc(N(C)C(=O)[C@H](Cc2cc(F)cc(F)c2)NC(=O)CN2CCN(C(=O)c3ccc(C)cc3)CC2=O)cc1`, the EC50 was 32 µM.

Tested on: Human immunodeficiency virus 2
Test: Antiviral activity against HIV-2 ROD infected in MT4 cells assessed as protection against virus induced cytotoxicity and measured after 5 days by MTT spectrophotometric assay
Assay type: functional, organism-based
Details: Human immunodeficiency virus 2, ROD, MT4, 120 h
For `COc1ccc(C(=O)N2CCN(CC(=O)N[C@@H](Cc3ccccc3)C(=O)N(C)c3ccc(OC)cc3)C(=O)C2)cc1`, the EC50 was 21 µM. In the case of `COc1ccc(N(C)C(=O)[C@H](Cc2cc(F)cc(F)c2)NC(=O)CN2CCN(C(=O)c3ccc(Br)cc3)CC2=O)cc1`, the EC50 is reported as over 19 µM. `COc1ccc(N(C)C(=O)[C@H](Cc2ccccc2)NC(=O)CN2CCN(C(=O)c3cccc([N+](=O)[O-])c3)CC2=O)cc1` gave an EC50 of over 24 µM. For `COc1ccc(N(C)C(=O)[C@H](Cc2ccccc2)NC(=O)CN2CCN(C(=O)c3ccccc3F)CC2=O)cc1`, the EC50 was 7.8 µM. In the case of `COc1ccc(N(C)C(=O)[C@H](Cc2cc(F)cc(F)c2)NC(=O)CN2CCN(C(=O)c3ccc(C(F)(F)F)cc3)CC2=O)cc1`, the EC50 is reported as over 18 µM. `COc1ccc(N(C)C(=O)[C@H](Cc2cc(F)cc(F)c2)NC(=O)CN2CCN(C(=O)c3cccc(C(F)(F)F)c3)CC2=O)cc1` gave an EC50 of over 3.7 µM. In the case of `COc1ccc(C(=O)N2CCN(CC(=O)N[C@@H](Cc3cc(F)cc(F)c3)C(=O)N(C)c3ccc(OC)cc3)C(=O)C2)cc1`, the EC50 is reported as 31 µM. For `COc1ccc(N(C)C(=O)[C@H](Cc2cc(F)cc(F)c2)NC(=O)CN2CCN(C(=O)c3cccc(N)c3)CC2=O)cc1`, the EC50 was 16 µM. Work on `COc1ccc(N(C)C(=O)[C@H](Cc2cc(F)cc(F)c2)NC(=O)CN2CCN(C(=O)c3ccc(C)cc3)CC2=O)cc1` yielded an EC50 of 35 µM.

Tested on: not listed separately
Test: Cytotoxicity against human MT4 cells assessed as reduction in cell viability after 5 days by MTT assay
Assay type: toxicity, cell-based
Details: time 5 day
`COc1ccc(C(=O)N2CCN(CC(=O)N[C@@H](Cc3ccccc3)C(=O)N(C)c3ccc(OC)cc3)C(=O)C2)cc1` gave a CC50 at 120 h of 110 µM. Work on `COc1ccc(N(C)C(=O)[C@H](Cc2cc(F)cc(F)c2)NC(=O)CN2CCN(C(=O)c3ccc(Br)cc3)CC2=O)cc1` yielded a CC50 at 120 h of 19 µM. Work on `COc1ccc(N(C)C(=O)[C@H](Cc2ccccc2)NC(=O)CN2CCN(C(=O)c3cccc([N+](=O)[O-])c3)CC2=O)cc1` yielded a CC50 at 120 h of 24 µM. With `COc1ccc(N(C)C(=O)[C@H](Cc2ccccc2)NC(=O)CN2CCN(C(=O)c3ccccc3F)CC2=O)cc1` the CC50 at 120 h was 140 µM. Compound `COc1ccc(N(C)C(=O)[C@H](Cc2cc(F)cc(F)c2)NC(=O)CN2CCN(C(=O)c3ccc(C(F)(F)F)cc3)CC2=O)cc1` has a CC50 at 120 h of 18 µM. Compound `COc1ccc(N(C)C(=O)[C@H](Cc2cc(F)cc(F)c2)NC(=O)CN2CCN(C(=O)c3cccc(C(F)(F)F)c3)CC2=O)cc1` has a CC50 at 120 h of 3.7 µM. For `COc1ccc(C(=O)N2CCN(CC(=O)N[C@@H](Cc3cc(F)cc(F)c3)C(=O)N(C)c3ccc(OC)cc3)C(=O)C2)cc1`, the CC50 at 120 h was 96 µM. In the case of `COc1ccc(N(C)C(=O)[C@H](Cc2cc(F)cc(F)c2)NC(=O)CN2CCN(C(=O)c3cccc(N)c3)CC2=O)cc1`, the CC50 at 120 h is reported as over 220 µM. With `COc1ccc(N(C)C(=O)[C@H](Cc2cc(F)cc(F)c2)NC(=O)CN2CCN(C(=O)c3ccc(C)cc3)CC2=O)cc1` the CC50 at 120 h was 74 µM.

Tested on: not listed separately
Test: Selectivity index, ratio of CC50 for human MT4 cells to EC50 for HIV-1 IIIB infected in human MT4 cells
Assay type: toxicity, cell-based
Details: read-out: Ratio CC50/EC50
`COc1ccc(C(=O)N2CCN(CC(=O)N[C@@H](Cc3ccccc3)C(=O)N(C)c3ccc(OC)cc3)C(=O)C2)cc1` gave a selectivity ratio of 4.2. `COc1ccc(N(C)C(=O)[C@H](Cc2cc(F)cc(F)c2)NC(=O)CN2CCN(C(=O)c3ccc(Br)cc3)CC2=O)cc1` gave a selectivity ratio of under 1. Compound `COc1ccc(N(C)C(=O)[C@H](Cc2ccccc2)NC(=O)CN2CCN(C(=O)c3cccc([N+](=O)[O-])c3)CC2=O)cc1` has a selectivity ratio of under 1. In the case of `COc1ccc(N(C)C(=O)[C@H](Cc2ccccc2)NC(=O)CN2CCN(C(=O)c3ccccc3F)CC2=O)cc1`, the selectivity ratio is reported as 5.8. Compound `COc1ccc(N(C)C(=O)[C@H](Cc2cc(F)cc(F)c2)NC(=O)CN2CCN(C(=O)c3ccc(C(F)(F)F)cc3)CC2=O)cc1` has a selectivity ratio of under 1. `COc1ccc(N(C)C(=O)[C@H](Cc2cc(F)cc(F)c2)NC(=O)CN2CCN(C(=O)c3cccc(C(F)(F)F)c3)CC2=O)cc1` showed a selectivity ratio of under 1. Work on `COc1ccc(C(=O)N2CCN(CC(=O)N[C@@H](Cc3cc(F)cc(F)c3)C(=O)N(C)c3ccc(OC)cc3)C(=O)C2)cc1` yielded a selectivity ratio of 4. For `COc1ccc(N(C)C(=O)[C@H](Cc2cc(F)cc(F)c2)NC(=O)CN2CCN(C(=O)c3cccc(N)c3)CC2=O)cc1`, the selectivity ratio was over 10. In the case of `COc1ccc(N(C)C(=O)[C@H](Cc2cc(F)cc(F)c2)NC(=O)CN2CCN(C(=O)c3ccc(C)cc3)CC2=O)cc1`, the selectivity ratio is reported as 2.3.

Tested on: not listed separately
Test: Selectivity index, ratio of CC50 for human MT4 cells to EC50 for HIV-2 ROD infected in human MT4 cells
Assay type: toxicity, cell-based
Details: read-out: Ratio CC50/EC50
Work on `COc1ccc(C(=O)N2CCN(CC(=O)N[C@@H](Cc3ccccc3)C(=O)N(C)c3ccc(OC)cc3)C(=O)C2)cc1` yielded a selectivity ratio of 5.2. With `COc1ccc(N(C)C(=O)[C@H](Cc2cc(F)cc(F)c2)NC(=O)CN2CCN(C(=O)c3ccc(Br)cc3)CC2=O)cc1` the selectivity ratio was under 1. With `COc1ccc(N(C)C(=O)[C@H](Cc2ccccc2)NC(=O)CN2CCN(C(=O)c3cccc([N+](=O)[O-])c3)CC2=O)cc1` the selectivity ratio was under 1. For `COc1ccc(N(C)C(=O)[C@H](Cc2ccccc2)NC(=O)CN2CCN(C(=O)c3ccccc3F)CC2=O)cc1`, the selectivity ratio was 18. `COc1ccc(N(C)C(=O)[C@H](Cc2cc(F)cc(F)c2)NC(=O)CN2CCN(C(=O)c3ccc(C(F)(F)F)cc3)CC2=O)cc1` gave a selectivity ratio of under 1. Work on `COc1ccc(N(C)C(=O)[C@H](Cc2cc(F)cc(F)c2)NC(=O)CN2CCN(C(=O)c3cccc(C(F)(F)F)c3)CC2=O)cc1` yielded a selectivity ratio of under 1. With `COc1ccc(C(=O)N2CCN(CC(=O)N[C@@H](Cc3cc(F)cc(F)c3)C(=O)N(C)c3ccc(OC)cc3)C(=O)C2)cc1` the selectivity ratio was 3.1. Compound `COc1ccc(N(C)C(=O)[C@H](Cc2cc(F)cc(F)c2)NC(=O)CN2CCN(C(=O)c3cccc(N)c3)CC2=O)cc1` has a selectivity ratio of over 14. For `COc1ccc(N(C)C(=O)[C@H](Cc2cc(F)cc(F)c2)NC(=O)CN2CCN(C(=O)c3ccc(C)cc3)CC2=O)cc1`, the selectivity ratio was 2.1.
